Columns and labels:
[1] = target: T1, GPR139 (Homo sapiens, UniProt Q6DWJ6); experiment: Signaling pathway panel at GPR139 (Gi2, Gi3, GoA, Gq, G12, Ca2+, arrestin-3), HEK293A; assay type: cell-based; parameters: expressed in transfected cells; host or cells: HEK293A (transient, Lipofectamine 2000); details: for fold more potent than the R-enantiomer: across individual signaling pathways
T1 sequence (Q6DWJ6 1-353): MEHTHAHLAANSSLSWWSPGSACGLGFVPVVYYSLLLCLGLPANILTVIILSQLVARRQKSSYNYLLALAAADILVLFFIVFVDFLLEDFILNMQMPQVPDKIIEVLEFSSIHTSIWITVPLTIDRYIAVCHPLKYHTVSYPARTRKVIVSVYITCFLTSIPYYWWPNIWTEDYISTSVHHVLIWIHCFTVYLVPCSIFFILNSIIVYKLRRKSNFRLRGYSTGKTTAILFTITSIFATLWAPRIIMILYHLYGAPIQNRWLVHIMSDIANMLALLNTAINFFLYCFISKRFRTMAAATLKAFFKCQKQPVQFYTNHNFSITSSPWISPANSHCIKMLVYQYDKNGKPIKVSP
Description: We evaluated the signaling pathways activated by the potent agonist 1.1 and JNJ-63533054 compounds through GPR139. […] As all our screens of analogs were performed with racemic mixtures, we synthesized compound 1.1 as pure S- and R-enantiomer (1.1(S) and 1.1(R), respectively) along with JNJ-63533054 (JNJ(S)) and its R-enantiomer (JNJ(R)). Detailed synthetic procedures are described in the Supplementary Methods. We then characterized these four compounds in assays measuring the activation of Gi2, Gi3, GoA, Gq, and G12 proteins, intracellular calcium mobilization, and arrestin-3 recruitment. G protein activation was measured using a BRET-based Gα-specific G protein dissociation assay[57] and arrestin-3 recruitment was measured with an enhanced bystander BRET assay[58] (Fig. 5a).
HEK293A cells were reverse-transfected with human GPR139 for Ca^2+ mobilization experiments with transiently expressed GPR139. The construct has been generated and described previously by Nøhr et al.. DNA and Lipofectamine 2000 Transfection Reagent (ThermoFisher #11668019) were separately diluted in Opti-MEM I Reduced Serum Medium (ThermoFisher #31985070). 10 ng GPR139 DNA and 250 nL Lipofectamine were used for each well. The dilutions were incubated at room temperature for 5 min. Then, DNA and Lipofectamine dilutions were combined in 1:1 volumetric ratio and incubated at room temperature for 20 min to obtain the transfection solutions. 10 µL transfection solution and 20,000 cells in 100 µL growth medium were distributed in each well of black clear bottom tissue culture treated 96-well plates that were previously coated with poly-D-lysine (Sigma-Aldrich #P0899). Cells were grown for approximately 48 h. A calcium mobilization assay was performed as described.
The G protein dissociation assay developed by the lab of Kirill A. Martemyanov was used to measure the coupling of multiple G proteins by GPR139[57]. The assay was performed as described previously with minor modifications. […] Simultaneous dual emission was measured at 535 nm and 475 nm on LUMIstar Omega Microplate Reader (BMG Labtech) at room temperature. […]

[2] = Metabolic stability in the presence of mouse liver microsomes; assay type: in vitro ADME; details: pH 7.4, read-out: intrinsic clearance, CLint
Description: Metabolic stability was determined in 0.5 mg/ml mouse liver microsomes at a compound concentration of 1 μM in 100 mM KPO4 buffer, pH 7.4, in a total incubation volume of 500 μl. The reaction was initiated by addition of 1 mM NADPH. At various incubation times, i.e., at 0, 5, 10, 20, 40, and 60 min, a sample was withdrawn from the incubation, and the reaction was terminated by addition of cold acetonitrile with warfarin as an internal standard. The amount of parent compound remaining was analyzed by LC-MS/MS[70].

[3] = parameters: method as in PMID 26349500; details: first hour after treatment; cited from earlier work

Structure (SMILES)	fold more potent than the R-enantiomer [1]	EC50 ([1]; range over pathways, read-out: EC50 for stimulating the individual signaling pathways at GPR139)	microsomal CLint at 1 μM [2]	locomotor activity [3]
Cc1cscc1-c1nc(CC(=O)N[C@@H](C)c2ccccc2)no1 [1.1(S)]	13- to 63 fold	13 to 200 nM	1370 µL/min/mg	–
Cc1nocc1-c1nc(CC(=O)NC(C)c2ccccc2)no1 (stereo not drawn) [Compound 1.5, CC(C1=CC=CC=C1)NC(CC2=NOC(C3=CON=C3C)=N2)=O]	–	–	46 µL/min/mg	–
CC(NC(=O)CNC(=O)c1cccc(Cl)c1)c1ccccc1 (stereo not drawn) [JNJ-63533054, reference compound]	40- to 158 fold	–	–	reduction in locomotor activity

From PMC12775434, “Ultra-large virtual screening unveils potent agonists of the neuromodulatory orphan receptor GPR139” (Nature Communications, 2025)
